The source of these data is ChEMBL document CHEMBL3639376, “IRE-1Œ± inhibitors” (2015).

Bounds are passed on as bounds.

The test deals with Serine/threonine-protein kinase/endoribonuclease IRE1 (Homo sapiens, UniProt O75460). Description: Inhibition Assay: A fusion protein comprising glutathione S transferase (GST) and human IRE-1alpha (GST-IRE-1alpha) obtained from a 500 ml baculovirus-infected insect cell culture can be used to measure IRE-1alpha activity in vitro. Five ul of a reaction mixture comprising IX reaction buffer (5x reaction buffer is 100 mM Hepes pH 7.5, 250 mM KOAc, 2.5 mM MgCl2), 3 mM DTT, and 0.4% polyethylene glycol water is added to each well of 384 well plates. Twenty-five nanoliters of a 1 mM test compound solution are added to test wells. Three ul of a 128 ng/ml IRE-1alpha preparation are added to each test well and to positive control wells (final concentration 5.82 ng/well). Negative control wells contain only reaction mixture and test compound.After spinning the plates at 1200 rpm for 30 seconds, 3 ul of an IRE-1alpha human mini-XBP-1 mRNA stem-loop substrate 5'-[…]-3' (SEQ ID NO:1), labeled with the fluorescent dye Cy5 at the 5' end and Black Hole Quencher 2.
Serine/threonine-protein kinase/endoribonuclease IRE1, sequence (O75460 whole entry, the tested form may be a part): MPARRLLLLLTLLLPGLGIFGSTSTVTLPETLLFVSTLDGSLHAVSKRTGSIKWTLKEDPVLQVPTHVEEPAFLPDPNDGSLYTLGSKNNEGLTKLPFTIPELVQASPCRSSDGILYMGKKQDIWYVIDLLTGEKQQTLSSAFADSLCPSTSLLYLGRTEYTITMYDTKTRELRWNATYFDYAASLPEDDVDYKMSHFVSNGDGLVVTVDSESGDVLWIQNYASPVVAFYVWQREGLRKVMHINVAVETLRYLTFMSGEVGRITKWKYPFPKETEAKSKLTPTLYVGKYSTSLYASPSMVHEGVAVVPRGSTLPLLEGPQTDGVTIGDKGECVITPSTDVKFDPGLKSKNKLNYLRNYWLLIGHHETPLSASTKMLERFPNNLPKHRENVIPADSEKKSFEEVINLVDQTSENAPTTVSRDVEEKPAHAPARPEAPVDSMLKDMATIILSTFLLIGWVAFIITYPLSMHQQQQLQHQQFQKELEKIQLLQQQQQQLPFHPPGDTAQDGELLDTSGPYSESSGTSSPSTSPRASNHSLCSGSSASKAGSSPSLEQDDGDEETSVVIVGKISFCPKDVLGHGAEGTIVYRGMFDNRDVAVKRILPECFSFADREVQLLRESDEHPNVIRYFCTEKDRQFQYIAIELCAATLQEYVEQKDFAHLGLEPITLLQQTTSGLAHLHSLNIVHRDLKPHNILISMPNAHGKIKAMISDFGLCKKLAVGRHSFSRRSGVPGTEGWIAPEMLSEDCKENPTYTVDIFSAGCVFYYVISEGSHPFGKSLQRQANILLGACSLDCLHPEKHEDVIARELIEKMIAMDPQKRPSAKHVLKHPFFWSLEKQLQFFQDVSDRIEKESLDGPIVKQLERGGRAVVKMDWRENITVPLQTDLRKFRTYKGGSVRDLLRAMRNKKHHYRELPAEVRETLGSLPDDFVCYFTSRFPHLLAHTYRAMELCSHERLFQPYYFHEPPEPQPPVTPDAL

On to `Cc1c(CCC(=O)N2CCOCC2)c(=O)oc2c(C=O)c(O)ccc12`, for which the IC50 was less than 0.1 µM. The figure for `O=Cc1c(O)ccc2nc(-c3ccc(C(=O)NCCN4CCOCC4)cc3)[nH]c12` is less than 0.1 µM. The figure for `Cc1c(-c2cccc(C(=O)N3CCOCC3)c2)c(=O)oc2c(C=O)c(O)ccc12` is less than 0.1 µM; for `Cc1c(Br)c(=O)oc2c(C=O)c(O)ccc12` it is less than 0.1 µM. The figure for `Cc1c(Cc2ccccc2)c(=O)oc2c(C=O)c(O)c(O)cc12` is less than 0.1 µM.

Turning to `CN1CCN(C2CCN(c3nc4ccc(O)c(C=O)c4s3)C2)CC1` (stereo not given), the IC50 is less than 0.1 µM. On to `CC1CCN(C(=O)c2ccc(-c3nc4ccc(O)c(C=O)c4s3)cc2)CC1`, for which the IC50 was less than 0.1 µM. As to `Cc1c(-c2ccc(C(=O)N3CCN(C)CC3)cc2)c(=O)oc2c(C=O)c(O)ccc12`, the IC50 is less than 0.1 µM. Next, `CN1CCN(C(=O)c2ccc(-c3nc4ccc(O)c(C=O)c4s3)s2)CC1`: less than 0.1 µM. The figure for `Cc1nc(N2CCc3c(ccc(O)c3C=O)C2)sc1C(=O)N1CCOCC1` is less than 10 µM. The figure for `Cc1c(-c2ccc(C(=O)N3CCCC3)cc2)c(=O)oc2c(C=O)c(O)ccc12` is less than 1 µM; for `CC(C)N1CCN(c2nc3ccc(O)c(C=O)c3s2)CC1` it is less than 0.1 µM.

On to `O=Cc1c(O)ccc2cc(-c3ccc(Br)cc3)c(=O)oc12`, for which the IC50 is less than 0.1 µM.

In the case of `O=Cc1c(O)ccc2nc(-c3ccc(C(=O)O)cc3)[nH]c12`, the half-inhibitory concentration (IC50) was less than 1 µM. Next, `O=Cc1c(O)ccc2nc(-c3ccc(C(=O)N4CCCC4)cc3)ccc12`: less than 0.1 µM; `COC(=O)c1ccc(-c2nc3ccc(O)c(C=O)c3[nH]2)cc1`: less than 1 µM; `CC(=O)NC1CCN(c2ccc3c(C=O)c(O)ccc3n2)C1` (stereo not given): less than 0.1 µM. Turning to `CCN(CC)CCc1c(C)c2ccc(O)c(C=O)c2oc1=O`, the IC50 was less than 0.1 µM. The figure for `O=Cc1c(O)ccc2nc(-c3cccc(C(=O)N4CCOCC4)c3)ccc12` is less than 1 µM. The figure for `Cc1cc(=O)oc2c(C=O)c(O)c(F)cc12` is less than 1 µM. Next, `Cc1c(-c2cccc(C(=O)N3CCCC3)c2)c(=O)oc2c(C=O)c(O)ccc12`: less than 0.1 µM. Consider `Cc1c(-c2ccc(C(=O)N3CCC(C)CC3)cc2)c(=O)oc2c(C=O)c(O)ccc12`, for which the IC50 is less than 1 µM.

In the case of `COc1cc2c(C)c(Br)c(=O)oc2c(C=O)c1O`, the IC50 is less than 0.1 µM.

As for `CN1CCN(CCC(=O)N2CCc3c(ccc(O)c3C=O)C2)CC1`, the IC50 was greater than 10 µM. For `CC1CCN(C(=O)c2ccc(-c3ccc4c(C=O)c(O)ccc4n3)cc2)CC1`, the concentration for half-maximal inhibition (IC50) is less than 0.1 µM. With `O=Cc1c(O)ccc2nc(N3CCC(NC(=O)CN4CCOCC4)C3)ccc12` (stereo not given), the IC50 was less than 0.1 µM.

Take `O=Cc1c(O)ccc2nc(-c3ccc(C(=O)N4CCOCC4)cc3)[nH]c12`: the IC50 is less than 0.1 µM. Next, `Cc1c(Br)c(=O)oc2c(C=O)c(O)c(F)cc12`: less than 1 µM; `COc1cc2c(C)c(-c3ccc(C(=O)N4CCOCC4)cc3)c(=O)oc2c(C=O)c1O`: less than 1 µM.

On to `CN1CCN(C(=O)c2ccc(-c3nc4ccc(O)c(C=O)c4[nH]3)cc2)CC1`, for which the IC50 is less than 0.1 µM.
